# Molecular target: T1, human RORγt (Ligand Binding Domain) (Homo sapiens, UniProt P51449)
# T1 construct: purchased Crelux (Planegg, Germany) batch no PC5032-1
# T1 sequence (P51449 269-508 limits assumed): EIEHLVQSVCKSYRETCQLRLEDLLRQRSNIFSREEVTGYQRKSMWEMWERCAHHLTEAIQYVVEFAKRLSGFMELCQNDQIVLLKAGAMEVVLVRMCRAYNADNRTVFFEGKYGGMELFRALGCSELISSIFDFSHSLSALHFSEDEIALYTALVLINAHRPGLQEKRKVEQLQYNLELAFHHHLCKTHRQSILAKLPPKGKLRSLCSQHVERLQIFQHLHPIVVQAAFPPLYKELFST
# Test: Fluorescence Polarization (FP) Assay
# Details: Fluorescence Polarization (FP) Assay; values given as upper bounds of activity ranges; read-out: FP activity range
# Description: The activity of the compounds was evaluated using a Fluorescence Polarization (FP) Assay and, in most cases, a Th17 Assay and/or RORγ Reporter assay (also referred to as Gal4 assay). The FP assay is an in vitro assay monitoring binding within the ligand binding pocket. The RORγ and the Th17 assays are both cell-based assays monitoring functional activity of the compound assayed.
# The total volume was 25 μl, in a black Perkin Elmer OptiPlate. As negative control, 1 μl DMSO was used. […] The probe is a fluorescently labeled (TAMRA) RORγt ligand identified by Nuevolution with a total molecular weight of 910 g/mole as shown in Graph A in FIG. 1.
row,IC50 [µM],Structure (SMILES)
1,< 0.5,"O=C(O)Cc1ccc(CNc2ncnc(N3CCCC3c3ccc(C(F)(F)F)cc3)c2F)cc1 (stereo not drawn) [Example 32, 2-[4-[[[5-fluoro-6-[2-[4-(trifluoromethyl)phenyl]pyrrolidin-1-yl]pyrimidin-4-yl]amino]methyl]phenyl]acetic acid]"
2,< 1,"CC(C)C[C@@H](Nc1ncnc(N2CC(C)CC2c2ccc(C(F)(F)F)cc2)c1F)C(N)=O (stereo partly drawn) [Example 34, (2R)-2-[[5-fluoro-6-[4-methyl-2-[4-(trifluoromethyl)phenyl]pyrrolidin-1-yl]pyrimidin-4-yl]amino]-4-methyl-pentanamide]"
3,< 1,"CC1CC(c2ccc(C(F)(F)F)cc2)N(c2ncnc(N[C@H](Cc3ccc(F)cc3)C(N)=O)c2F)C1 (stereo partly drawn) [Example 37, (2R)-2-[[5-fluoro-6-[4-methyl-2-[4-(trifluoromethyl)phenyl]pyrrolidin-1-yl]pyrimidin-4-yl]amino]-3-(4-fluorophenyl)propanamide]"
4,< 2,"CC(CC1CCOCC1)Nc1ncnc(N2CCCC2c2ccc(C(F)(F)F)cc2)c1F (stereo not drawn) [Example 41, 5-fluoro-N-(1-methyl-2-tetrahydropyran-4-yl-ethyl)-6-[2-[4-(trifluoromethyl)phenyl]pyrrolidin-1-yl]pyrimidin-4-amine]"
5,< 10,"O=C(O)c1ccc(CNc2ncnc(N3CCCC3c3ccc(C(F)(F)F)cc3)c2F)cc1 (stereo not drawn) [Example 44, 4-[[[5-fluoro-6-[2-[4-(trifluoromethyl)phenyl]pyrrolidin-1-yl]pyrimidin-4-yl]amino]methyl]benzoic acid]"
6,< 10,"CC1(C)NC(=O)N(Cc2ccc(CNc3ncnc(N4CCCC4c4ccc(C(F)(F)F)cc4)c3F)cc2)C1=O (stereo not drawn) [Example 45, 3-[[4-[[[5-fluoro-6-[2-[4-(trifluoromethyl)phenyl]pyrrolidin-1-yl]pyrimidin-4-yl]amino]methyl]phenyl]methyl]-5,5-dimethyl-imidazolidine-2,4-dione]"
7,< 1,"NS(=O)(=O)Cc1ccc(CNc2ncnc(N3CCCC3c3ccc(C(F)(F)F)cc3)c2F)cc1 (stereo not drawn) [Example 46, [4-[[[5-fluoro-6-[2-[4-(trifluoromethyl)phenyl]pyrrolidin-1-yl]pyrimidin-4-yl]amino]methyl]phenyl]methane-sulfonamide]"
8,< 2,"Fc1c(NCc2ccc(C(F)(F)F)cc2)ncnc1N1CCCC1c1ccc(C(F)(F)F)cc1 (stereo not drawn) [Example 48, 5-fluoro-N-[[4-(trifluoromethyl)phenyl]methyl]-6-[2-[4-(trifluoromethyl)phenyl]pyrrolidin-1-yl]pyrimidin-4-amine]"
9,< 10,"CCC(Nc1ncnc(N2CCCC2c2ccc(C(F)(F)F)cc2)c1F)c1ccc2c(c1)OCCCO2 (stereo not drawn) [Example 55, N-[1-(3,4-dihydro-2H-1,5-benzodioxepin-7-yl)propyl]-5-fluoro-6-[2-[4-(trifluoromethyl)phenyl]pyrrolidin-1-yl]pyrimidin-4-amine]"
10,< 10,"O=C(c1ccc(CNc2ncnc(N3CCCC3c3ccc(C(F)(F)F)cc3)c2F)cc1)N1CCOCC1 (stereo not drawn) [Example 57, [4-[[[5-fluoro-6-[2-[4-(trifluoromethyl)phenyl]pyrrolidin-1-yl]pyrimidin-4-yl]amino]methyl]phenyl]-morpholino-methanone]"
11,< 10,"OCC1CCN(c2ccc(CNc3ncnc(N4CCCC4c4ccc(C(F)(F)F)cc4)c3F)cn2)CC1 (stereo not drawn) [Example 58, [1-[5-[[[5-fluoro-6-[2-[4-(trifluoromethyl)phenyl]pyrrolidin-1-yl]pyrimidin-4-yl]amino]methyl]-2-pyridyl]-4-piperidyl]methanol]"
12,< 10,"Fc1c(NCc2ccc(OCC3CCCO3)cc2)ncnc1N1CCCC1c1ccc(C(F)(F)F)cc1 (stereo not drawn) [Example 59, 5-fluoro-N-[[4-(tetrahydrofuran-2-ylmethoxy)phenyl]methyl]-6-[2-[4-(trifluoromethyl)phenyl]pyrrolidin-1-yl]pyrimidin-4-amine]"
13,< 10,"NC(=O)C1CCCN(c2ccc(CNc3ncnc(N4CCCC4c4ccc(C(F)(F)F)cc4)c3F)cc2)C1 (stereo not drawn) [Example 61, 1-[4-[[[5-fluoro-6-[2-[4-(trifluoromethyl)phenyl]pyrrolidin-1-yl]pyrimidin-4-yl]amino]methyl]phenyl]piperidine-3-carboxamide]"
14,< 2,"COC(=O)Cc1ccc(CNc2ncnc(N3CCCC3c3ccc(C(F)(F)F)cc3)c2F)cc1 (stereo not drawn) [Example 70, methyl 2-[4-[[[5-fluoro-6-[2-[4-(trifluoromethyl)phenyl]pyrrolidin-1-yl]pyrimidin-4-yl]amino]methyl]phenyl]acetate]"
15,< 10,"CC(=O)N1CCOC([C@@H](CC(C)(C)C)Nc2ncnc(N3CCCC3c3ccc(C(F)(F)F)cc3)c2F)C1 (stereo partly drawn) [Example 71, 1-[2-[(1R)-1-[[5-fluoro-6-[2-[4-(trifluoromethyl)phenyl]pyrrolidin-1-yl]pyrimidin-4-yl]amino]-3,3-dimethyl-butyl]morpholin-4-yl]ethanone]"
16,< 10,"Cn1ccc(CNc2ncnc(N3CCCC3c3ccc(C(F)(F)F)cc3)c2F)c1 (stereo not drawn) [Example 105, 5-fluoro-N-[(1-methylpyrrol-3-yl)methyl]-6-[2-[4-(trifluoromethyl)phenyl]pyrrolidin-1-yl]pyrimidin-4-amine]"
17,< 10,"O=C1CCC(CNc2ncnc(N3CCCC3c3ccc(C(F)(F)F)cc3)c2F)N1 (stereo not drawn) [Example 108, 5-[[[5-fluoro-6-[2-[4-(trifluoromethyl)phenyl]pyrrolidin-1-yl]pyrimidin-4-yl]amino]methyl]pyrrolidin-2-one]"
18,< 10,"O=C(O)c1ccc(CCNc2ncnc(N3CCCC3c3ccc(C(F)(F)F)cc3)c2F)cc1 (stereo not drawn) [Example 120, 4-[2-[[5-fluoro-6-[2-[4-(trifluoromethyl)phenyl]pyrrolidin-1-yl]pyrimidin-4-yl]amino]ethyl]benzoic acid]"
19,< 10,"O=C1Cc2cc(CNc3ncnc(N4CCCC4c4ccc(C(F)(F)F)cc4)c3F)ccc2N1 (stereo not drawn) [Example 122, 5-[[[5-fluoro-6-[2-[4-(trifluoromethyl)phenyl]pyrrolidin-1-yl]pyrimidin-4-yl]amino]methyl]indolin-2-one]"
20,< 10,"O=C1CC(CNc2ncnc(N3CCCC3c3ccc(C(F)(F)F)cc3)c2F)CN1C1CCCC1 (stereo not drawn) [Example 130, 1-cyclopentyl-4-[[[5-fluoro-6-[2-[4-(trifluoromethyl)phenyl]pyrrolidin-1-yl]pyrimidin-4-yl]amino]methyl]pyrrolidin-2-one]"
21,< 10,"Cc1cccc(CNc2ncnc(N3CCCC3c3ccc(C(F)(F)F)cc3)c2F)n1 (stereo not drawn) [Example 132, 5-fluoro-N-[(6-methyl-2-pyridyl)methyl]-6-[2-[4-(trifluoromethyl)phenyl]pyrrolidin-1-yl]pyrimidin-4-amine]"
22,< 10,"O=C1CC2(CCCN(c3ncnc(N4CCCC4c4ccc(C(F)(F)F)cc4)c3F)C2)CN1 (stereo not drawn) [Example 134, 9-[5-fluoro-6-[2-[4-(trifluoromethyl)phenyl]pyrrolidin-1-yl]pyrimidin-4-yl]-3,9-diazaspiro[4.5]decan-2-one]"
23,< 10,"CN1CC(CN(C)c2ncnc(N3CCCC3c3ccc(C(F)(F)F)cc3)c2F)CC1=O (stereo not drawn) [Example 135, 4-[[[5-fluoro-6-[2-[4-(trifluoromethyl)phenyl]pyrrolidin-1-yl]pyrimidin-4-yl]-methyl-amino]methyl]-1-methyl-pyrrolidin-2-one]"
24,< 2,"CCc1ccc(CN(C)c2ncnc(N3CCCC3c3ccc(C(F)(F)F)cc3)c2F)nc1 (stereo not drawn) [Example 136, N-[(5-ethyl-2-pyridyl)methyl]-5-fluoro-N-methyl-6-[2-[4-(trifluoromethyl)phenyl]pyrrolidin-1-yl]pyrimidin-4-amine]"
